Measurements reported in article PMC4579270, “Identification and Characterization of an Irreversible Inhibitor of CDK2” (Chemistry & Biology, 2015).

How the values were obtained:
Test in all cases: Dundee protein kinase screen
Type in all cases: biochemical
BRSK1 = BRSK1 (Homo sapiens, UniProt Q8TDC3); settings: BRSK1, 1µM; read-out: %Remaining activity at 1µM NU6300
Method in brief: (§1)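 Selectivity panel of 131 protein kinases, inhibitor tested at a single concentration of 1 µM; values are % kinase activity remaining, mean of duplicates. Re-test of selected kinases used 0.5 µM in the standard format and again after a 4 hour pre-incubation with the inhibitor.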

CAMKKβ = CAMKKβ (Homo sapiens, UniProt Q96RR4); settings: read-out: %Remaining activity at 1µM NU6300
Method in brief: as §1

CDK9-Cyclin T1 = CDK9-Cyclin T1 (Homo sapiens, UniProt P50750); settings: CDK9-Cyclin T1, 1µM; read-out: %Remaining activity at 1µM NU6300
Method in brief: as §1

DAPK1 = DAPK1 (Homo sapiens, UniProt P53355); settings: DAPK1, 1µM; read-out: %Remaining activity at 1µM NU6300
Method in brief: as §1

DYRK1A = DYRK1A (Homo sapiens, UniProt Q13627); settings: read-out: %Remaining activity at 1µM NU6300
Method in brief: as §1

DYRK3 = DYRK3 (Homo sapiens, UniProt O43781); settings: DYRK3, 1µM; read-out: %Remaining activity at 1µM NU6300
Method in brief: as §1

EPH-B1 = EPH-B1 (Homo sapiens, UniProt P54762); settings: EPH-B1, 1µM; read-out: %Remaining activity at 1µM NU6300
Method in brief: as §1

FGF-R1 = FGF-R1 (Homo sapiens, UniProt P11362); settings: FGF-R1, 1µM; read-out: %Remaining activity at 1µM NU6300
Method in brief: as §1

HIPK1 = HIPK1 (Homo sapiens, UniProt Q86Z02); settings: HIPK1, 1µM; read-out: %Remaining activity at 1µM NU6300
Method in brief: as §1

JAK2 = JAK2 (Homo sapiens, UniProt O60674); settings: JAK2, 1µM; read-out: %Remaining activity at 1µM NU6300
Method in brief: as §1

MARK3 = MARK3 (Homo sapiens, UniProt P27448); settings: MARK3, 1µM; read-out: %Remaining activity at 1µM NU6300
Method in brief: as §1

MINK1 = MINK1 (Homo sapiens, UniProt Q8N4C8); settings: MINK1, 1µM; read-out: %Remaining activity at 1µM NU6300
Method in brief: as §1

MKK6 = MKK6 (Homo sapiens, UniProt P52564); settings: MKK6, 1µM; read-out: %Remaining activity at 1µM NU6300
Method in brief: as §1

NEK6 = NEK6 (Homo sapiens, UniProt Q9HC98); settings: NEK6, 1µM; read-out: %Remaining activity at 1µM NU6300
Method in brief: as §1

PKCζ = PKCζ (Homo sapiens, UniProt Q05513); settings: read-out: %Remaining activity at 1µM NU6300
Method in brief: as §1

PRAK = PRAK (Homo sapiens, UniProt Q8IW41); settings: read-out: %Remaining activity at 1µM NU6300
Method in brief: as §1

RIPK2 = RIPK2 (Homo sapiens, UniProt O43353); settings: RIPK2, 1µM; read-out: %Remaining activity at 1µM NU6300
Method in brief: as §1

S6K1 = S6K1 (Homo sapiens, UniProt P23443); settings: S6K1, 1µM; read-out: %Remaining activity at 1µM NU6300
Method in brief: as §1

TSSK1 = target: T1, TSSK1 (Homo sapiens, UniProt Q9BXA7); settings: TSSK1, 1µM; read-out: %Remaining activity at 1µM NU6300
T1 sequence (Q9BXA7 1-367): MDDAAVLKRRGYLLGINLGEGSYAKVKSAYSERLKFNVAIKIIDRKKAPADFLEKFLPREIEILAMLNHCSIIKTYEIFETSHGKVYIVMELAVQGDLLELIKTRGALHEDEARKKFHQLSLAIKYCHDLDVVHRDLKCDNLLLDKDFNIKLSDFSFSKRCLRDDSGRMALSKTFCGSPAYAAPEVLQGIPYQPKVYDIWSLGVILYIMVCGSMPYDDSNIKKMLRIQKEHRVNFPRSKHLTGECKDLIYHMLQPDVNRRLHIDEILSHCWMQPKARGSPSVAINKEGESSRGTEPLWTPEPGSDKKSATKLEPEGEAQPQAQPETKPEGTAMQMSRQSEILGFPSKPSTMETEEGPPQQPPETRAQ
Method in brief: as §1

ZAP70 = ZAP70 (Homo sapiens, UniProt P43403); settings: ZAP70, 1µM; read-out: %Remaining activity at 1µM NU6300
Method in brief: as §1

Chain of DYRK3 (O43781 whole entry): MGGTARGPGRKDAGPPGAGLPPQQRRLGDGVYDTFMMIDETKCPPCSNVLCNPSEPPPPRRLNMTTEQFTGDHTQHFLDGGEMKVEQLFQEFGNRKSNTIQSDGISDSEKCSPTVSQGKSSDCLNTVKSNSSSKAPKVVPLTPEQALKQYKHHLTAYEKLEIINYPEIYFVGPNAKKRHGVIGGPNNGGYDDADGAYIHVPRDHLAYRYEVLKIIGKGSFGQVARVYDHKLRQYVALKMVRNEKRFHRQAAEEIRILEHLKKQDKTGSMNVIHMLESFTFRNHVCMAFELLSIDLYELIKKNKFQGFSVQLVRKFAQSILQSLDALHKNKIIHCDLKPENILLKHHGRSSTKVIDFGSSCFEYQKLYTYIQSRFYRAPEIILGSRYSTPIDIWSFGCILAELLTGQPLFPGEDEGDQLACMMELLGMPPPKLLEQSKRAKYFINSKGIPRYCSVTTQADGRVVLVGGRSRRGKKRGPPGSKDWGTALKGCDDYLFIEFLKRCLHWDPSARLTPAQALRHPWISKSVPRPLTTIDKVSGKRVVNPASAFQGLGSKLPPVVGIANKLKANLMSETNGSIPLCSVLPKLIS
Chain of JAK2 (O60674 whole entry): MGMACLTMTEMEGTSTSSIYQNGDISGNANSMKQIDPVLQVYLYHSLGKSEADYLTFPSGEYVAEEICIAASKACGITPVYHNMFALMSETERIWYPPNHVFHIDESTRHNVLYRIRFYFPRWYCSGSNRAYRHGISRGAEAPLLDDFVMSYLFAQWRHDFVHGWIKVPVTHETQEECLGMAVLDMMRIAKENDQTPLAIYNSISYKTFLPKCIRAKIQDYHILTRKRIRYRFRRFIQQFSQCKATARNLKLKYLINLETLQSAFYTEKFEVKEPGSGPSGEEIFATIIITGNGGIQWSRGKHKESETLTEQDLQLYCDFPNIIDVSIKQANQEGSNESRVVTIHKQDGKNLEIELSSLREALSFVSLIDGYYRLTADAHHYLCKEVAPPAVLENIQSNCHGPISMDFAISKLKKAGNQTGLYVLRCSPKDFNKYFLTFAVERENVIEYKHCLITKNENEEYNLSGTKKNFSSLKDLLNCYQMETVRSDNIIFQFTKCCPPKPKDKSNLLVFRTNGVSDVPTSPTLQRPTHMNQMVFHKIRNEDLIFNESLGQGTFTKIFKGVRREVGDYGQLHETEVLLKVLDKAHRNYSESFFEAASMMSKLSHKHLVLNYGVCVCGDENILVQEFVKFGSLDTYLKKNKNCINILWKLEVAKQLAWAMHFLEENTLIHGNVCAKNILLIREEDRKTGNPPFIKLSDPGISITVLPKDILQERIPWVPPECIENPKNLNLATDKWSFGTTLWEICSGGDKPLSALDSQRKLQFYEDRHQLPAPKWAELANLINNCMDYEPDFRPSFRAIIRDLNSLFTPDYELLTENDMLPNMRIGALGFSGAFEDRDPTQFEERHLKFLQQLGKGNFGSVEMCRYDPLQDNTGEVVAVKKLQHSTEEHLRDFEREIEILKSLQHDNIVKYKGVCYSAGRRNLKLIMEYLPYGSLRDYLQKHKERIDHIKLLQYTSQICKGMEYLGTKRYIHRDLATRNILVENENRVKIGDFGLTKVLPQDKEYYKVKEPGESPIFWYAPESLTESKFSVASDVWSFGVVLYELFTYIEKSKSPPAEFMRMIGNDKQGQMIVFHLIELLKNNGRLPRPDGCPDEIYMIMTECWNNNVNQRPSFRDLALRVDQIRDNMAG
Chain of DAPK1 (P53355 whole entry): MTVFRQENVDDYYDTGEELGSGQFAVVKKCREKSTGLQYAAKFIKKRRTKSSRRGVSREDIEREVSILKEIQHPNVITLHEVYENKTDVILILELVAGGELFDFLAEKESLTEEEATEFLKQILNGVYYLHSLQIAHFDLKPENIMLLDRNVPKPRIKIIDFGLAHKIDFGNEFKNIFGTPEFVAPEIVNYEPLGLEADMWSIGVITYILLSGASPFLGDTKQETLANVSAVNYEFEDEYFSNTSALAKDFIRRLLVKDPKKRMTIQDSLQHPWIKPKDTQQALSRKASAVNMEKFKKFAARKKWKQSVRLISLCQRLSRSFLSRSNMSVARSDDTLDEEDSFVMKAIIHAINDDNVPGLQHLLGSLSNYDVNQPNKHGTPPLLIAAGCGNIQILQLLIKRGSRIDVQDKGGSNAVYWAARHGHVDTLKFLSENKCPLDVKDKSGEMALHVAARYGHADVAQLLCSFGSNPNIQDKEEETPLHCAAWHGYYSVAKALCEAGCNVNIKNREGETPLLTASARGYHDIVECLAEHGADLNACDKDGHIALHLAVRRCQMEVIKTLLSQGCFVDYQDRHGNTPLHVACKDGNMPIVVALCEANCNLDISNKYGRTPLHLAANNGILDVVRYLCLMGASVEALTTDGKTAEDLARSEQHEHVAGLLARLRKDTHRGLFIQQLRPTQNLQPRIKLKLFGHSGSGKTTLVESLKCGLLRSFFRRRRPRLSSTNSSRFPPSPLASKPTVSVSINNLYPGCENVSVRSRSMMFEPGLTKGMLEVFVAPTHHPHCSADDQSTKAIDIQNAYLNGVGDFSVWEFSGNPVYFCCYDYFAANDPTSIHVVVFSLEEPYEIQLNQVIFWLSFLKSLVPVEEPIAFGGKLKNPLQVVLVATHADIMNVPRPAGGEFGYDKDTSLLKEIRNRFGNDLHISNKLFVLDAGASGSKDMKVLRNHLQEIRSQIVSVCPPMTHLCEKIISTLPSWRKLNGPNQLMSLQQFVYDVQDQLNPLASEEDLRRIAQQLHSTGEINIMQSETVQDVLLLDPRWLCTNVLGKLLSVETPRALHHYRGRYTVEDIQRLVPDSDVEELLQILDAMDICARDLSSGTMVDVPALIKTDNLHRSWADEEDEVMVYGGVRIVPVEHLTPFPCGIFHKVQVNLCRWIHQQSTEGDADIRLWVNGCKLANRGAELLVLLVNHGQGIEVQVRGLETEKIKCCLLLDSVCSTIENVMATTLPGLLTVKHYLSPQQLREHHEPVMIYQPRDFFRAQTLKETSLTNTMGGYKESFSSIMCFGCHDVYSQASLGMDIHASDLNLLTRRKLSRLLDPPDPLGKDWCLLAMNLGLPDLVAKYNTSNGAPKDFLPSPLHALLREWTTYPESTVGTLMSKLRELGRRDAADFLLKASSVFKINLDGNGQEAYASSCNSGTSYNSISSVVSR
Chain of MKK6 (P52564 whole entry): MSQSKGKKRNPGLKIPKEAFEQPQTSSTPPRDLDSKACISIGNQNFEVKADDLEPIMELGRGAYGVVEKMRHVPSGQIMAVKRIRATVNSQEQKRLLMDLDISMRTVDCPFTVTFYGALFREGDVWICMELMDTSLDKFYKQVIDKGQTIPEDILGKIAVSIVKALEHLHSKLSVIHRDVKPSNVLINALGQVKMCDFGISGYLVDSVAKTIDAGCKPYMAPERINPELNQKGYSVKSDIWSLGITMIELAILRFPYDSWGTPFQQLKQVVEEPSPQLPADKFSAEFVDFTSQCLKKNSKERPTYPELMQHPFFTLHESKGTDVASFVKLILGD
Chain of CAMKKβ (Q96RR4 whole entry): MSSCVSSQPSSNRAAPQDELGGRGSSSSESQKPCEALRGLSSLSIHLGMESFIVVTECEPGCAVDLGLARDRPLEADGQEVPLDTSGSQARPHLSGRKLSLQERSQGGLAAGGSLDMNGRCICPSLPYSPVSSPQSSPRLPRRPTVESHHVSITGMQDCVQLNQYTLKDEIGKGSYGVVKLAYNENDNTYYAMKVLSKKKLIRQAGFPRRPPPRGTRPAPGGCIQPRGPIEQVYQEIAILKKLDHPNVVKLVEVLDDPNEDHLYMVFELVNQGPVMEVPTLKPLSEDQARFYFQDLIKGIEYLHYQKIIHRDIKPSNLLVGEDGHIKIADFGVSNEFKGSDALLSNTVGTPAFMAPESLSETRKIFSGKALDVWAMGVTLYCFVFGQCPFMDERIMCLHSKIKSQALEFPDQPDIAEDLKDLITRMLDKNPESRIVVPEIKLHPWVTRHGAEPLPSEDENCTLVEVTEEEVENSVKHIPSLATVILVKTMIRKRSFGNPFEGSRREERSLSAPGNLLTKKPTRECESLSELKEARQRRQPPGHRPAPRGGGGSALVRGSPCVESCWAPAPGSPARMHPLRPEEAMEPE
Chain of ZAP70 (P43403 whole entry): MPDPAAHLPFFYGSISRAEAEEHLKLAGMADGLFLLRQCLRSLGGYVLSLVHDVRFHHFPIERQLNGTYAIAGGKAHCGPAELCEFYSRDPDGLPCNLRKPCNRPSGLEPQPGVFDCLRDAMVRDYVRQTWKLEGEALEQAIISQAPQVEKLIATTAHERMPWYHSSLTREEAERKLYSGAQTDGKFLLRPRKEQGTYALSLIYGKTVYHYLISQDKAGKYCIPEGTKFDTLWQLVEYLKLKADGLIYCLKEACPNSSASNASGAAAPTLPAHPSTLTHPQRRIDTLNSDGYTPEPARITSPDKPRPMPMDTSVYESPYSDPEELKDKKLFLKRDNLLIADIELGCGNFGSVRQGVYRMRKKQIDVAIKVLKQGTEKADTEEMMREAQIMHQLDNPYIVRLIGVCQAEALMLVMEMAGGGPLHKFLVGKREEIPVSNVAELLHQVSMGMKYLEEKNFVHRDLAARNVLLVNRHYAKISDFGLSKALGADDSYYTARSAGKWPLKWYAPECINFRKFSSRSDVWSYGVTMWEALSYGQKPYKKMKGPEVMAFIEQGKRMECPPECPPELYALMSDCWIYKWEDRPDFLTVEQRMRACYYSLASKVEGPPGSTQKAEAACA
Chain of NEK6 (Q9HC98 whole entry): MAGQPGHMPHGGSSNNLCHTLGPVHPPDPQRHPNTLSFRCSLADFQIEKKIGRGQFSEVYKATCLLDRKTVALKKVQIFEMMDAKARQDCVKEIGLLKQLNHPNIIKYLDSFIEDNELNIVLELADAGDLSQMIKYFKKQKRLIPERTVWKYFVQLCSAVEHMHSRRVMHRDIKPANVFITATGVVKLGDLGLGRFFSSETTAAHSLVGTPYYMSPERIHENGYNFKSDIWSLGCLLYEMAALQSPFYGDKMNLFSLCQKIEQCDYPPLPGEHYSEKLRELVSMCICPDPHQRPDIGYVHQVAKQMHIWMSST

Q: Which results are given for C=CS(=O)(=O)c1ccc(Nc2nc(OCC3CCCCC3)c3nc[nH]c3n2)cc1 [NU6300, 6-(cyclohexylmethoxy)-N-(4-(vinylsulfonyl)phenyl)-9H-purin-2-amine]?
A: remaining activity at 1 µM (BRSK1): 79%; remaining activity at 1 µM (CAMKKβ): 73%; remaining activity at 1 µM (CDK9-Cyclin T1): 87%; remaining activity at 1 µM (DAPK1): 83%; remaining activity at 1 µM (DYRK1A): 73%; remaining activity at 1 µM (DYRK3): 91%; remaining activity at 1 µM (EPH-B1): 78%; remaining activity at 1 µM (FGF-R1): 62%; remaining activity at 1 µM (HIPK1): 93%; remaining activity at 1 µM (JAK2): 5%; remaining activity at 1 µM (MARK3): 71%; remaining activity at 1 µM (MINK1): 69%; remaining activity at 1 µM (MKK6): 85%; remaining activity at 1 µM (NEK6): 70%; remaining activity at 1 µM (PKCζ): 100%; remaining activity at 1 µM (PRAK): 77%; remaining activity at 1 µM (RIPK2): 86%; remaining activity at 1 µM (S6K1): 82%; remaining activity at 1 µM (TSSK1): 26%; remaining activity at 1 µM (ZAP70): 90%
